Measured values published in patent publication US10322127B2, “Methods and kits to predict therapeutic outcome of BTK inhibitors” (THE TRANSLATIONAL GENOMICS RESEARCH INSTITUTE, priority 2010, dated 2019).

Key:
[1] = test system: BCR (B cell receptor) signaling in human B cells; conditions: cited from earlier work
[2] = test system: mast cell and basophil degranulation; conditions: cited from earlier work
[3] = test system: collagen-induced arthritis; conditions: mice, orally dosed; cited from earlier work
[4] = test system: pancreatic cancer cell lines with a DPC4 deletion (BxPC-3 and CFPAC-1) vs DPC4 wildtype (MIA PaCa-2 and PANC-1); experiment: Cell viability by Cell Titer-Glo after 96 hours of drug treatment, pancreatic cancer cell lines; format: cell-based, human; conditions: BxPC-3 and CFPAC-1 vs MIA PaCa-2 and PANC-1, FIG. 5A, *p<0.05, **p<0.0001
Protocol: Cell viability was measured by Cell Titer-Glo after 96 hours of drug treatment.

MRL/lpr lupus model = conditions: cited from earlier work
[5] = test system: T cell receptor (TCR) signaling; conditions: cited from earlier work

SMILES: C=CC(=O)N1CCC[C@@H](n2nc(-c3ccc(Oc4ccccc4)cc3)c3c(N)ncnc32)C1 [PCI-32765]
- effect on BCR signaling [1]: blocks
- inhibition of mast cell and basophil degranulation [2]: potent inhibitor
- course of collagen induced arthritis [3]: reversed
- level of circulating autoantibodies [3]: reduced
- activity (inhibition of cell growth) in DPC4 deleted vs DPC4 wildtype pancreatic cancer cell lines [4]: more activity
- auto-antibody production and development of kidney disease (MRL/lpr lupus model): inhibited
- effect on TCR signaling [5]: does not affect
